Data reported in US8912120B2, “Herbicidal compositions comprising 4-amino-3-chloro-5-fluoro-6-(4-chloro-2-fluoro-3-methoxyphenyl) pyridine-2-carboxylic acid or a derivative thereof and synthetic auxin herbicides” (Dow AgroSciences, LLC., priority 2012, dated 2014).
Where a name gives a salt, the structure may show the parent alone.

What was measured:
POLCO = experiment: Example IV: postemergence foliar-applied herbicidal mixtures, cereal crops, POLCO; assay type: in vivo, Polygonum convolvulus (wild buckwheat); settings: alone, foliar, 20-22 days
Experimental: (§1) Seeds of the desired test plant species were planted in Sun Gro MetroMix 306 planting mixture, which typically has a pH of 6.0 to 6.8 and an organic matter content of about 30 percent, in plastic pots with a surface area of 103.2 square centimeters (cm^2). […] The plants were grown for 7-36 days in a greenhouse with an approximate 14 hour photoperiod which was maintained at about 18° C. during the day and 17° C. during the night.
(§2) Spray solutions of the second cereal herbicide and experimental compound mixtures were prepared by adding the stock solutions to the appropriate amount of dilution solution to form 12 mL spray solution with active ingredients in two- and three-way combinations.

STEME = experiment: Example IV: postemergence foliar-applied herbicidal mixtures, cereal crops, STEME; assay type: in vivo, Stellaria media (common chickweed); settings: alone, 10 gai/ha, 20-22 days
Experimental: as §1, §2

VIOTR = experiment: Example IV: postemergence foliar-applied herbicidal mixtures, cereal crops, VIOTR; assay type: in vivo, Viola tricolor (wild pansy); settings: alone, foliar, 20-22 days
Experimental: as §1, §2

AMARE = experiment: Example IV: postemergence foliar-applied herbicidal mixtures, weed control in cereal crops in the greenhouse, AMARE; assay type: in vivo, Amaranthus retroflexus (redroot pigweed); settings: alone, 35 gai/ha, 20-22 days
Experimental: as §1, §2

CIRAR = experiment: Example IV: postemergence foliar-applied herbicidal mixtures, cereal crops, CIRAR; assay type: in vivo, Cirsium arvense (Canada thistle); settings: alone, 20-22 days
Experimental: as §1, §2

BRSNN = experiment: Example IV: postemergence foliar-applied herbicidal mixtures, cereal crops, BRSNN; assay type: in vivo, Brassica napus (volunteer canola); settings: alone, 3 gai/ha, foliar, 20-22 days
Experimental: as §1, §2

CYPRO = experiment: Example II: in-water applied herbicidal mixtures, weed control in transplanted paddy rice (greenhouse), CYPRO; assay type: in vivo, Cyperus rotundus (purple nutsedge); settings: for Visual Weed Control (%) Obs: 22 DAA
Experimental: (§3) The prepared mud was dispensed in 365 mL aliquots into 16-ounce (oz.) non-perforated plastic pots with a surface area of 86.59 square centimeters (cm^2) leaving a headspace of 3 centimeters (cm) in each pot Mud was allowed to dry overnight prior to planting or transplanting. Rice seeds were planted in Sun Gro MetroMix® 306 planting mixture, which typically has a pH of 6.0 to 6.8 and an organic matter content of about 30 percent, in plastic plug trays. Seedlings at the second or third leaf stage of growth were transplanted into 840 mL of mud contained in 32-oz. non-perforated plastic pots with a surface area of 86.59 cm^2 4 days prior to herbicide application. […] Nutrients were added as Osmocote® (19:6:12, N:P:K^+ minor nutrients) at 2 g per 16-oz. pot and 4 g per 32-oz. pot.
(§4) Applications were made by injecting with a pipetter appropriate amounts of the application solutions, individually and sequentially, into the aqueous layer of the paddy. Control plants were treated in the same manner with the solvent blank. Applications were made so that all treated plant material received the same concentrations of acetone and crop oil concentrate.

ECHCG = experiment: Example II: in-water applied herbicidal mixtures, transplanted paddy rice, ECHCG; assay type: in vivo, Echinochloa crus-galli (barnyardgrass); settings: for Visual Weed Control (%) Obs: 22 DAA; for Visual Weed Control (%) - 21 DAA ECHCG Obs: in-water application
Experimental: as §3, §4

ECHOR = experiment: Example II: in-water applied herbicidal mixtures, transplanted paddy rice, ECHOR; assay type: in vivo, Echinochloa oryzoides (early watergrass)
Experimental: as §3, §4

FIMMI = experiment: Example II: in-water applied herbicidal mixtures, transplanted paddy rice, FIMMI; assay type: in vivo, Fimbristylis miliacea (globe fringerush); settings: 22 DAA
Experimental: as §3, §4

LEFCH = experiment: Example II: in-water applied herbicidal mixtures, transplanted paddy rice, LEFCH; assay type: in vivo, Leptochloa chinensis (Chinese sprangletop); settings: for Visual Weed Control (%) Obs: 22 DAA; for Visual Weed Control (%) - 21 DAA LEFCH Obs: in-water application
Experimental: as §3, §4

SCPJU = experiment: Example II: in-water applied herbicidal mixtures, transplanted paddy rice, SCPJU; assay type: in vivo, Schoenoplectus juncoides (Japanese bulrush); settings: for Visual Weed Control (%) Obs: 22 DAA; for Visual Weed Control (%) - 21 DAA SCPJU Obs: in-water application
Experimental: as §3, §4

ELEIN = experiment: Example III: postemergence foliar-applied herbicidal mixtures, weeds common to row crops such as corn and soybeans (greenhouse), ELEIN; assay type: in vivo, Eleusine indica (goosegrass); settings: 14 DAA
Experimental: (§5) The plants were grown for 7-31 days (d) in a greenhouse with an approximate 15 hour (h) photoperiod which was maintained at about 23-29° C. during the day and 22-28° C. during the night.

PANDI = experiment: Example III: postemergence foliar-applied herbicidal mixtures, row crop weeds, PANDI; assay type: in vivo, Panicum dichotomiflorum (fall panicum); settings: 16 DAA
Experimental: as §5

PANMI = experiment: Example III: postemergence foliar-applied herbicidal mixtures, row crop weeds, PANMI; assay type: in vivo, Panicum miliaceum (wild-proso millet); settings: 16 DAA
Experimental: as §5

CENMA = experiment: Example V: postemergence herbicidal activity of mixtures in forage crops, CENMA; assay type: in vivo, Centaurea maculosa (spotted knapweed); settings: alone, foliar, approximately 21 days
Experimental: as §1, with “Seeds or root cuttings” for “Seeds”, “MetroMix®” for “MetroMix”, “126.6” for “103.2”, “14-60” for “7-36”, “approximately 28°” for “about 18°”, “24°” for “17°”
(§6) Spray solutions of the second herbicide or experimental compound mixtures were prepared by adding the stock solutions to the appropriate amount of dilution solution to form 12 mL spray solution with active ingredients in two-way combinations.

SINAR = experiment: Example V: postemergence herbicidal activity of mixtures in forage crops, SINAR; assay type: in vivo, Sinapis arvensis (wild mustard); settings: alone, foliar, approximately 21 days
Experimental: as §1, with “Seeds or root cuttings” for “Seeds”, “MetroMix®” for “MetroMix”, “126.6” for “103.2”, “14-60” for “7-36”, “approximately 28°” for “about 18°”, “24°” for “17°”
as §6

SONAR = experiment: Example V: postemergence herbicidal activity of mixtures in forage crops, SONAR; assay type: in vivo, Sonchus arvensis (field sowthistle); settings: alone, foliar, approximately 21 days
Experimental: as §1, with “Seeds or root cuttings” for “Seeds”, “MetroMix®” for “MetroMix”, “126.6” for “103.2”, “14-60” for “7-36”, “approximately 28°” for “about 18°”, “24°” for “17°”
as §6

[1] = 280 gae/ha, in-water application

What does the source list for `Nc1c(Cl)c(Cl)nc(C(=O)O)c1Cl` [Picloram, 4-amino-3,5,6-trichloro-2-pyridinecarboxylic acid]?
POLCO Ob (observed value) (POLCO; 10 gai/ha): 40%; STEME Ob (observed value) (STEME): 0%; VIOTR Ob (observed value) (VIOTR; 10 gai/ha): 3%

Which “AMARE Ob (observed value)” value (AMARE) does the source give for `Nc1c(Cl)c(F)nc(OCC(=O)O)c1Cl` [Fluroxypyr, 2-[(4-amino-3,5-dichloro-6-fluoro-2-pyridinyl)oxy]acetic acid] here?
Its value is 33%.

What about the “CIRAR Ob (observed value)” value (CIRAR; 35 gai/ha) of the same molecule?
Its value is 3%.

What about the “POLCO Ob (observed value)” value (POLCO; 35 gai/ha) of the same molecule?
Its value is 23%.

What about the “VIOTR Ob (observed value)” value (VIOTR; 35 gai/ha) of the same molecule?
Its value is 10%.

How did the “BRSNN Ob (observed value)” value (BRSNN) turn out when `Nc1cc(Cl)nc(C(=O)O)c1Cl` [Aminopyralid, 4-amino-3,6-dichloro-2-pyridinecarboxylic acid] was run?
The value was 0%.

What about the “CIRAR Ob (observed value)” value (CIRAR; 3 gai/ha) of the same molecule?
Its value is 13%.

And the “POLCO Ob (observed value)” value (POLCO; 3 gai/ha)?
Its value is 3%.

How did the “Visual Weed Control (%) Obs” value (CYPRO; 70 gae/ha) turn out when `O=C(O)COc1nc(Cl)c(Cl)cc1Cl` [Triclopyr Choline Salt, 2-hydroxy-N,N,N-trimethylethanaminium 2-((3,5,6-trichloropyridin-2-yl)oxy)acetate, reference compound] was run?
Its value is 0%.

What about the “Visual Weed Control (%) Obs” value (CYPRO; 140 gae/ha) of the same molecule?
The value was 0%.

And the “Visual Weed Control (%) Obs” value (ECHCG; 70 gae/ha)?
The value was 15%.

And the “Visual Weed Control (%) Obs” value (ECHCG; 140 gae/ha)?
Its value is 20%.

What about the pest or weed control at 70 g/ha (ECHOR; Echinochloa oryzoides, 528 h, 22 DAA, 70 gae/ha, read-out: Visual Weed Control (%) Obs) of the same molecule?
Its pest or weed control at 70 g/ha is 10%.

What about the pest or weed control at 140 g/ha (ECHOR; Echinochloa oryzoides, 528 h, 22 DAA, 140 gae/ha, read-out: Visual Weed Control (%) Obs) of the same molecule?
Its pest or weed control at 140 g/ha is 15%.

And the “Visual Weed Control (%) Obs” value (FIMMI; 70 gae/ha)?
Its value is 15%.

And the “Visual Weed Control (%) Obs” value (FIMMI; 140 gae/ha)?
Its value is 80%.

What about the “Visual Weed Control (%) Obs” value (LEFCH; 70 gae/ha) of the same molecule?
Its value is 0%.

What about the “Visual Weed Control (%) Obs” value (LEFCH; 140 gae/ha) of the same molecule?
The value was 0%.

And the “Visual Weed Control (%) Obs” value (SCPJU; 70 gae/ha)?
The value was 15%.

And the “Visual Weed Control (%) Obs” value (SCPJU; 140 gae/ha)?
Its value is 50%.

How did the “Visual Weed Control (%) - 21 DAA CYPRO Obs” value (CYPRO; [1]) turn out when `O=C(O)COc1ccc(Cl)cc1Cl` [2,4-D DMA Salt, 2-(2,4-dichlorophenoxy)acetic acid with N-methylmethanamine, reference compound] was run?
The value was 0%.

And the “Visual Weed Control (%) - 21 DAA ECHCG Obs” value (ECHCG; 140 gae/ha)?
Its value is 0%.

What about the “Visual Weed Control (%) - 21 DAA ECHCG Obs” value (ECHCG; 280 gae/ha) of the same molecule?
The value was 0%.

And the “Visual Weed Control (%) - 21 DAA ECHOR Obs” value (ECHOR; [1])?
Its value is 15%.

And the “Visual Weed Control (%) - 21 DAA LEFCH Obs” value (LEFCH; 140 gae/ha)?
Its value is 0%.

And the “Visual Weed Control (%) - 21 DAA LEFCH Obs” value (LEFCH; 280 gae/ha)?
The value was 60%.

And the “Visual Weed Control (%) - 21 DAA SCPJU Obs” value (SCPJU; 140 gae/ha)?
The value was 0%.

What about the “Visual Weed Control (%) - 21 DAA SCPJU Obs” value (SCPJU; 280 gae/ha) of the same molecule?
Its value is 0%.

What about the “Visual Weed Control (%) Obs” value (ELEIN; 52.5 gae/ha) of the same molecule?
Its value is 0%.

What about the “Visual Weed Control (%) Obs” value (ELEIN; 105 gae/ha) of the same molecule?
The value was 0%.

And the “Visual Weed Control (%) Obs” value (PANDI; 105 gae/ha)?
Its value is 0%.

And the “Visual Weed Control (%) Obs” value (PANDI; 210 gae/ha)?
Its value is 0%.

What about the “Visual Weed Control (%) Obs” value (PANMI; 52.5 gae/ha) of the same molecule?
The value was 0%.

What about the “Visual Weed Control (%) Obs” value (PANMI; 105 gae/ha) of the same molecule?
Its value is 10%.

What about the “CENMA Obs (observed value)” value (CENMA; 35 gae/ha) of the same molecule?
Its value is 30%.

What about the “CENMA Obs (observed value)” value (CENMA; 70 gae/ha) of the same molecule?
Its value is 50%.

And the “SINAR Obs (observed value)” value (SINAR; 35 gae/ha)?
The value was 35%.

What about the “SINAR Obs (observed value)” value (SINAR; 70 gae/ha) of the same molecule?
Its value is 80%.

And the “SONAR Obs (observed value)” value (SONAR; 35 gae/ha)?
Its value is 20%.

What about the “SONAR Obs (observed value)” value (SONAR; 70 gae/ha) of the same molecule?
Its value is 85%.
